Key:
[1] = molecular target: human PARG (PARG-NanoLuc fusion in HEK293T cells) (Homo sapiens (Human), UniProt Q86W56); test: PARG NanoBRET-based cellular target engagement assay; assay type: cell-based; settings: HEK293T cells transfected with PARG-NanoLuc, NanoBRET probe 0.89 μM, 2 hours; read-out: PARG TE IC50
Method: PARG Nano-luciferase construct: The PARG-NanoLuc® fusion vector was generated by Promega, by inserting the full length human PARG cDNA sequence encoding the 976 amino acid protein (Gene ID: 8505, UniProt: Q86W56) into the pNLF1-C [CMV/Hygro] vector (C-terminal fusions with NanoLuc® enzyme).
PARG target engagement tracer synthesis: The NanoBRET tracer for PARG was prepared following a previously reported general tracer synthesis procedure.
PARG Probe Displacement Assay Using NanoBRET: HEK293T (DSMZ #ACC 635) cells transiently transfected with the PARG-NanoLuc fusion construct were resuspended in phenol red-free OptiMEM (Gibco #11058-021) to a concentration of 2.4×10^5 cells/mL. 9 μL per well were then added to a white 384-well low volume microplate (Greiner #784080) and incubated for 24 hours under standard growth conditions.
Then compound was dispensed into each well using an Echo dispenser (BeckmanCoulter) to yield the pre-specified final concentration of the range of concentrations to be tested (typically 8-point serial concentrations ranging from either from 0.01 to 10 μM, or from 0.001 to 1 μM, or from 0.0001 to 0.1 μM), and being volume-corrected with 100% DMSO (0.5% final DMSO concentration in reaction mixtures).
After mixing and an incubation at room temperature for 15 min 1 μl of the NanoBRET probe (at 0.89 μM final concentration) was added to the microplate using a multichannel pipette. The plate was mixed and incubated in a 5% CO2 environment at 37° C. for 2 hours, and then 5 μL per well of a solution consisting of a 1:31.25 dilution of Nano-Glo substrate (Promega) and a 1:500 dilution of NanoLuc extracellular inhibitor (Promega) in phenol red-free OptiMEM was added to each well followed by another mixing step. Filtered luminescence was measured on an EnVision plate reader (PerkinElmer) equipped with a 460 nm filter (donor) and a 645 nm filter (acceptor). BRET ratios were plotted as concentration-response curves fitted to a sigmoidal 4-parameter logistic model to calculate IC50 values (Scigilian Analyze).

[2] = system: RMUG-S; test: Modified cell proliferation assay (CellTiter-Glo), RMUG-S, Examples 12-44; assay type: cell-based; settings: Examples 12-44: modified protocol, 384-well, 300 cells per well, 120 h; highest concentration tested 9000 nM; read-out: RMUG-S GI50 (high PARG dependency)
Method: (§1) The cell proliferation assay protocol was modified and used for RMUG-S for Examples 12-44, and subsequently used to test Examples 1-44 in the NCI-H1650 cell line.
(§2) NCI-H1650 (ATCC, #CRL-5883) or RMUG-S were seeded on day 1 at 300 cells per well in a 384-well plate (Greiner, #781080) that assure assay linearity and optimal signal intensity in 25 μL of RPMI1640 media (Pan Biotech, #P04-22100) containing 10% FCS (Capricorn, #FBS-11A; Lot. CP22-5141) and 1% Glutamine (Pan Biotech, #P04-80100). After incubation for 24 h in humidified chambers at 37° C./5% CO2, compounds/DMSO were dispensed at different concentrations using an Echo 520 (Beckman Coulter). Cells were further incubated for 120 h at 37° C. and 5% CO2. Cells treated with the compound vehicle DMSO were used as negative controls and cells treated with 10 μM Staurosporine (LC Laboratories, #S-9300) served as positive controls.
(§3) At day 6 the CellTiter Glo Reagent was prepared according to the instructions of the kit (Promega Inc.): Reagent was mixed 1:1 with cell culture medium. Thereon, mixture and assay plates were equilibrated at room temperature for 20 min. Equal volumes of the reagent-medium-mixture were added to the volume of culture medium present in each well. The plates were mixed at […] for 2 minutes on an orbital shaker (Timix5, Edmund Buehler GmbH). The microplates were then incubated at room temperature for 10 minutes for stabilization of the luminescent signal. Following incubation, the luminescence was recorded on a Victor X5 microplate reader (Perkin Elmer) using a 200 ms integration time. The data was then analyzed with Excel using the XLFIT Plugin (dose response Fit 205) for determination of the concentration necessary for half-maximal inhibition (i.e. the inflection point of the fitted curve).
(§4) As quality control the Z′-factor was calculated from 16 positive and negative control values. Only assay results showing a Z′-factor≥0.5 were used for further analysis.

[3] = molecular target: Recombinant His-tagged human PARG protein (Homo sapiens (Human), UniProt Q86W56); test: PARG enzymatic assay (TFMU-ADPr fluorescence); assay type: biochemical; settings: 1 nM enzyme, 200 μM TFMU-ADPr, read after 30 minutes
Method: Inhibition of PARG enzymatic activity by compounds was determined as follows: Recombinant His-tagged human PARG protein expressed in Sf21 insect cells (Adipogen AG, #40T-0022) was aliquoted and stored at −80° C. until use. The artificial enzyme substrate 4-(trifluoromethyl)umbelliferone (TFMU)-ADPr was prepared essentially as described (Drown B S et al, Cell Chemical Biology 2018) and stored at −20° C. as 10 mM stock solutions in DMSO (dimethyl sulfoxide) until use. For reactions, typical final concentration of the enzyme was 1 nM and of the TFMU-ADPr 200 μM. Reactions were carried out in black 384-well low volume round bottom assay plates (Corning, #4514) in a final volume of 10 μL. To this end, PARG was diluted to 1.67 nM in reaction buffer (50 mM K2HPO4, 50 mM KCl, 10 mM β-mercaptoethanol, pH 7.4) and 6 μL were dispensed per assay well using a multichannel pipette. Then compound was dispensed into each well using an Echo dispenser (BeckmanCoulter) to yield the pre-specified final concentration of the range of concentrations to be tested (typically 8-point serial concentrations ranging from either from 0.01 to 10 μM, or from 0.001 to 1 μM, or from 0.0001 to 0.1 μM), and being volume-corrected with 100% DMSO (0.5% final DMSO concentration in reaction mixtures). Plates were mixed, and after 15 minutes 4 μL TFMU-ADPr was added into each well using a multichannel pipette followed by brief mixing. Fluorescence intensity signals were then measured after 30 minutes on an EnVision microplate reader (PerkinElmer) using 380/10 nm and 535/25 nm filters for the excitation and emission, respectively (gain: 150). The assay window was set using DMSO control (top) and a control containing no PARG enzyme (bottom). Delta values were plotted as concentration-response curves fitted to a sigmoidal 4-parameter logistic model to calculate IC50 values (Scigilian Analyze).

[4] = system: NCI-H1650; test: Modified cell proliferation assay (CellTiter-Glo), NCI-H1650; assay type: cell-based; settings: Homo sapiens, NCI-H1650; modified protocol, 384-well, 300 cells per well, 120 h; highest concentration tested 30000 nM; read-out: NCI-H1650 GI50 (high PARG dependency)
Method: as §1, §2, §3, §4

Recombinant His-tagged human PARG protein, sequence (Q86W56 whole entry): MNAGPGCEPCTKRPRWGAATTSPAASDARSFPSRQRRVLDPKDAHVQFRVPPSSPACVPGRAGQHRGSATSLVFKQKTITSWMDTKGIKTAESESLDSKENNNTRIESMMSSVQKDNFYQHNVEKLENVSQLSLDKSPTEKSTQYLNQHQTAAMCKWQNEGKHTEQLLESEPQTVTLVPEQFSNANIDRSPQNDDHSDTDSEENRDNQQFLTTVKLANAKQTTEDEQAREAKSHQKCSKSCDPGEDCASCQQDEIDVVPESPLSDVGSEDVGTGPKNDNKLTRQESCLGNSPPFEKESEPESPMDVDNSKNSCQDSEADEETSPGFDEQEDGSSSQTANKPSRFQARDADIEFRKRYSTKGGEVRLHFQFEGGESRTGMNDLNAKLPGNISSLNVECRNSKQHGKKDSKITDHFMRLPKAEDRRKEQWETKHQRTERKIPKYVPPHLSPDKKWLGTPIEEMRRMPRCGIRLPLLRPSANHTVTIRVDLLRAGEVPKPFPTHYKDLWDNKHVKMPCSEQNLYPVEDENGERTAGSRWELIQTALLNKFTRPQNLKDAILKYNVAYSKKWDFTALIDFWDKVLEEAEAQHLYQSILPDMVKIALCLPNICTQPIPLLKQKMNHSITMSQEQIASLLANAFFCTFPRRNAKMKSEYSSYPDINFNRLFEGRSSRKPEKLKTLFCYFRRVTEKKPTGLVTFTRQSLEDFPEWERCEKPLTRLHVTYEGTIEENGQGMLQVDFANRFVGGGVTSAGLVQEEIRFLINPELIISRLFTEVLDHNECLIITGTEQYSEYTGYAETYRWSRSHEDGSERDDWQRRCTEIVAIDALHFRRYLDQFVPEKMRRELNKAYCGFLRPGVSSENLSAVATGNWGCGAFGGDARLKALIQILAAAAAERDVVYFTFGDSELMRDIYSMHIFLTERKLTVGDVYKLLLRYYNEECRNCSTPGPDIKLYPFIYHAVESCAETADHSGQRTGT
human PARG (PARG-NanoLuc fusion in HEK293T cells), sequence (Q86W56 whole entry, the tested form may be a part): as the sequence (Q86W56 whole entry) above

IC50 [1]	IC50 [3]	GI50 [4]	Structure (SMILES)	GI50 [2]
< 30 nM	< 30 nM	< 500 nM	CO/N=c1\[nH]c2c(N3CCN(C(=O)N4CCC(F)(F)C4)[C@H](C)C3)cc(S(=O)(=O)NC3(C)CC3)cc2c(=O)n1Cc1cnn(C)c1 [Example 36, (R,E)-8-(4-(3,3-difluoropyrrolidine-1-carbonyl)-3-methylpiperazin-1-yl)-2-(methoxyimino)-3-((1-methyl-1H-pyrazol-4-yl)methyl)-N-(1-methylcyclopropyl)-4-oxo-1,2,3,4-tetrahydroquinazoline-6-sulfonamide]	–
< 30 nM	< 30 nM	< 500 nM	CO/N=c1\[nH]c2c(N3CCN(C(=O)N(C)CC(F)(F)F)[C@H](C)C3)cc(S(=O)(=O)NC3(C)CC3)cc2c(=O)n1Cc1cnn(C)c1 [Example 37, (R,E)-4-(2-(methoxyimino)-3-((1-methyl-1H-pyrazol-4-yl)methyl)-6-(N-(1-methylcyclopropyl)sulfamoyl)-4-oxo-1,2,3,4-tetrahydroquinazolin-8-yl)-N,2-dimethyl-N-(2,2,2-trifluoroethyl)piperazine-1-carboxamide]	–
< 30 nM	< 30 nM	< 500 nM	CO/N=c1\[nH]c2c(N3CCN(C(=O)C4(C)CCC4)[C@H](C)C3)cc(S(=O)(=O)NC3(C)CC3)cc2c(=O)n1Cc1cnn(C)c1 [Example 38, (R,E)-2-(methoxyimino)-3-((1-methyl-1H-pyrazol-4-yl)methyl)-8-(3-methyl-4-(1-methylcyclobutane-1-carbonyl)piperazin-1-yl)-N-(1-methylcyclopropyl)-4-oxo-1,2,3,4-tetrahydroquinazoline-6-sulfonamide]	–
< 30 nM	< 30 nM	< 500 nM	CO/N=c1\[nH]c2c(N3CCN(C(=O)C4CCCC4)[C@H](C)C3)cc(S(=O)(=O)NC3(C)CC3)cc2c(=O)n1Cc1cnn(C)c1 [Example 39, (R,E)-8-(4-(cyclopentanecarbonyl)-3-methylpiperazin-1-yl)-2-(methoxyimino)-3-((1-methyl-1H-pyrazol-4-yl)methyl)-N-(1-methylcyclopropyl)-4-oxo-1,2,3,4-tetrahydroquinazoline-6-sulfonamide]	–
< 30 nM	< 30 nM	< 500 nM	CO/N=c1\[nH]c2c(N3CCN(C(=O)N4CCCC4)[C@H](C)C3)cc(S(=O)(=O)NC3(C)CC3)cc2c(=O)n1Cc1cnn(C)c1 [Example 40, (R,E)-2-(methoxyimino)-3-((1-methyl-1H-pyrazol-4-yl)methyl)-8-(3-methyl-4-(pyrrolidine-1-carbonyl)piperazin-1-yl)-N-(1-methylcyclopropyl)-4-oxo-1,2,3,4-tetrahydroquinazoline-6-sulfonamide]	–
< 30 nM	< 30 nM	< 500 nM	CO/N=c1\[nH]c2c(N3CCN(C(=O)N(C)C)[C@H](C)C3)cc(S(=O)(=O)NC3(C)CC3)cc2c(=O)n1Cc1cnn(C)c1 [Example 41, (R,E)-4-(2-(methoxyimino)-3-((1-methyl-1H-pyrazol-4-yl)methyl)-6-(N-(1-methylcyclopropyl)sulfamoyl)-4-oxo-1,2,3,4-tetrahydroquinazolin-8-yl)-N,N,2-trimethylpiperazine-1-carboxamide]	–

The next lines start with the molecule.

Structure (SMILES)	IC50 [1]	IC50 [3]	GI50 [4]	GI50 [2]
CO/N=c1\[nH]c2c(N3CCN(C)[C@H](C)C3)cc(S(=O)(=O)NC3(C)CC3)cc2c(=O)n1Cc1cnn(C)c1 [Example 21, (2E)-2-methoxyimino-N-(1-methylcyclopropyl)-3-[(1-methylpyrazol-4-yl)methyl]-4-oxo-8-[(3R)-3,4-dimethylpiperazin-1-yl]-1H-quinazoline-6-sulfonamide]	30 to 99 nM	< 30 nM	500 to 2000 nM	500 to 2000 nM
CO/N=c1\[nH]c2c(C3CCN[C@H](C)C3)cc(S(=O)(=O)NC3(C)CC3)cc2c(=O)n1Cc1cnn(C)c1 (stereo partly drawn) [Example 24, (2E)-2-methoxyimino-N-(1-methylcyclopropyl)-3-[(1-methylpyrazol-4-yl)methyl]-4-oxo-8-[(2R)-2-methyl-4-piperidyl]-1H-quinazoline-6-sulfonamide]	100 to 1000 nM	< 30 nM	> 2000 nM	2000 to 9000 nM
CO/N=c1\[nH]c2c(C3CCN(C)[C@H](C)C3)cc(S(=O)(=O)NC3(C)CC3)cc2c(=O)n1Cc1cnn(C)c1 (stereo partly drawn) [Example 25, (2E)-2-methoxyimino-N-(1-methylcyclopropyl)-3-[(1-methylpyrazol-4-yl)methyl]-4-oxo-8-[(2R)-1,2-dimethyl-4-piperidyl]-1H-quinazoline-6-sulfonamide]	30 to 99 nM	< 30 nM	500 to 2000 nM	500 to 2000 nM
CO/N=c1\[nH]c2c(C3CCN(C(C)=O)[C@H](C)C3)cc(S(=O)(=O)NC3(C)CC3)cc2c(=O)n1Cc1cnn(C)c1 (stereo partly drawn) [Example 26, (2E)-2-methoxyimino-N-(1-methylcyclopropyl)-3-[(1-methylpyrazol-4-yl)methyl]-4-oxo-8-[(2R)-1-acetyl-2-methyl-4-piperidyl]-1H-quinazoline-6-sulfonamide]	< 30 nM	< 30 nM	500 to 2000 nM	2000 to 9000 nM
CO/N=c1\[nH]c2c(C3CCN(C(=O)C4(C)CC4)[C@H](C)C3)cc(S(=O)(=O)NC3(C)CC3)cc2c(=O)n1Cc1cnn(C)c1 (stereo partly drawn) [Example 27, (2E)-2-methoxyimino-N-(1-methylcyclopropyl)-3-[(1-methylpyrazol-4-yl)methyl]-4-oxo-8-[(2R)-2-methyl-1-(1-methylcyclopropanecarbonyl)-4-piperidyl]-1H-quinazoline-6-sulfonamide]	< 30 nM	< 30 nM	< 500 nM	< 500 nM

From patent publication US20260042754A1, “Substituted Bicyclic Heteroaryl Sulfonamide Derivatives for the Treatment of Cancer” (NODUS ONCOLOGY LIMITED, priority 2022, published 2026)
